Measured values published in article PMC4232510, “Identification of Functionally Important Residues of the Rat P2X4 Receptor by Alanine Scanning Mutagenesis of the Dorsal Fin and Left Flipper Domains” (PLoS ONE, 2014).
Residue numbers refer to the chain shown, from its start. One block for each compound: values may come before it.

Assays:
Assay in all cases: whole-cell patch clamp, HEK293T cells expressing mutant
Type in all cases: cell-based
rP2X4R R282A mutant = molecular target: T1, rP2X4R R282A mutant (Rattus norvegicus, UniProt P51577, R282A); settings: for relative responsiveness: 100 µM agonist 2 s, relative to ATP (100%)
T1 construct: expressed in transfected cells; host or cells: HEK293T
T1 sequence (P51577 1-388 R282A): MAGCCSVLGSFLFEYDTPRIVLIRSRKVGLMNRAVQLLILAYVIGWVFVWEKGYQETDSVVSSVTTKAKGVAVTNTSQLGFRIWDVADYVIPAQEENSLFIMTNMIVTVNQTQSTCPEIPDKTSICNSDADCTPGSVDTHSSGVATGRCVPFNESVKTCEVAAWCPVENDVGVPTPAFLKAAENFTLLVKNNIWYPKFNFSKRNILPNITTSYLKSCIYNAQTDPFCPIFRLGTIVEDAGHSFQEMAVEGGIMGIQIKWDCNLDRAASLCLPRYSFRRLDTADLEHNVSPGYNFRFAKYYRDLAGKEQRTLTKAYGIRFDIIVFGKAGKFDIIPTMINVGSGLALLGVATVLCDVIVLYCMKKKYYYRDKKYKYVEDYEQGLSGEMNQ

rP2X4R P290A mutant = molecular target: T2, rP2X4R P290A mutant (Rattus norvegicus, UniProt P51577, P290A); settings: for relative responsiveness: 100 µM agonist 2 s, relative to ATP (100%)
T2 construct: expressed in transfected cells; host or cells: HEK293T
T2 sequence (P51577 1-388 P290A): T1 sequence (P51577 1-388 R282A) with A282R, P290A

rP2X4R I209A mutant = molecular target: T3, rP2X4R I209A mutant (Rattus norvegicus, UniProt P51577, I209A)
T3 construct: expressed in transfected cells; host or cells: HEK293T
T3 sequence (P51577 1-388 I209A): T1 sequence (P51577 1-388 R282A) with I209A, A282R

[1] = 100 µM ATP 60 s, biexponential fit
[2] = contribution of τdes2, 100 µM ATP 60 s
[3] = decay after removal of 1 or 3 µM ATP, 3 µM IVM
[4] = naïve receptors, 2–5 s application
[5] = 3 µM IVM 4-6 min vs IVM-untreated

- relative responsiveness (rP2X4R R282A mutant): 55.1±12.9%
- relative responsiveness (rP2X4R P290A mutant): 50.7±3.7%
Compound: CSc1nc(N)c2ncn([C@@H]3O[C@H](COP(=O)(O)OP(=O)(O)OP(=O)(O)O)[C@@H](O)[C@H]3O)c2n1 [2-MeS-ATP, 2-(Methylthio)adenosine 5′-triphosphate]

Compound: 2′(3′-O-(4-Benzoylbenzoyl)adenosine 5′-triphosphate [BzATP]
- relative responsiveness (rP2X4R R282A mutant): 25.7±3.7%
- relative responsiveness (rP2X4R P290A mutant): 16.9±3.2 %

Compound: Nc1ncnc2c1ncn2[C@@H]1O[C@H](COP(=O)(O)OP(=O)(O)OP(=O)(O)O)[C@@H](O)[C@H]1O [ATP]
- EC50 rightward shift compared to WT (rP2X4R R282A mutant): approximately 10 fold
- τdes1 (rP2X4R R282A mutant; [1]): 4.0 ± 0.3 s
- τdes2 (rP2X4R R282A mutant; [1]): 14.7 ± 2.0 s
- Imax (rP2X4R R282A mutant; 100–1000 µM ATP): 0.7 ± 0.1 nA
- Imax+IVM (rP2X4R R282A mutant; ATP after 3 µM IVM 4-6 min): 4.5 ± 0.5 nA
- A2 /(A1+A2) (rP2X4R R282A mutant; [2]): 64 ±14%
- τoff +IVM (rP2X4R R282A mutant; [3]): 7.0 ± 0.6 s
- EC50 (rP2X4R R282A mutant; [4]): 23 ± 8 µM
- τdes (rP2X4R R282A mutant; weighted, 100 µM ATP 60 s): 14 ± 1.0 s
- τdes1 (rP2X4R P290A mutant; [1]): 0.8 ± 0.1 s
- τdes2 (rP2X4R P290A mutant; [1]): 12.0 ± 1.5 s
- Imax (rP2X4R P290A mutant; 100–1000 µM ATP): 0.9 ± 0.1 nA
- Imax+IVM (rP2X4R P290A mutant; ATP after 3 µM IVM 4-6 min): 3.3 ± 0.5 nA
- A2 /(A1+A2) (rP2X4R P290A mutant; [2]): 53 ± 3%
- τoff +IVM (rP2X4R P290A mutant; [3]): 13 ± 1.4 s
- EC50 (rP2X4R P290A mutant; [4]): 8 ± 3.4 µM
- τdes (rP2X4R P290A mutant; weighted, 100 µM ATP 60 s): 6.6 ± 0.5 s
- τdes1 (rP2X4R I209A mutant; [1]): 2.1 ± 0.8 s
- τdes2 (rP2X4R I209A mutant; [1]): 9.3 ± 2.6 s
- Imax (rP2X4R I209A mutant; 100–1000 µM ATP): 1.9 ± 0.4 nA
- Imax+IVM (rP2X4R I209A mutant; ATP after 3 µM IVM 4-6 min): 4.1 ± 0.8 nA
- A2 /(A1+A2) (rP2X4R I209A mutant; [2]): 70 ± 2%
- τoff +IVM (rP2X4R I209A mutant; [3]): 22 ± 3.0 s
- EC50 (rP2X4R I209A mutant; [4]): 4.3 ± 2.1 µM
- τdes (rP2X4R I209A mutant; weighted, 100 µM ATP 60 s): 6.3 ± 0.2 s

Compound: Nc1ncnc2c1ncn2C1OC(COP(=O)(O)CP(=O)(O)OP(=O)(O)O)C(O)C1O (stereo not drawn) [α,β-meATP, α,β-methyleneadenosine 5′-triphosphate]
- relative responsiveness (rP2X4R R282A mutant): 27.3±7.9%
- relative responsiveness (rP2X4R P290A mutant): 17.8±2.4 %

- relative responsiveness (rP2X4R R282A mutant): 45.5±5.2%
- relative responsiveness (rP2X4R P290A mutant): 37.0±11.0%
Compound: Nc1ncnc2c1ncn2[C@@H]1O[C@H](CO[P@](=O)(O)O[P@](=O)(O)O[P@@](=O)(O)S)[C@@H](O)[C@H]1O [ATPγS, Adenosine 5′-(γ-thio)triphosphate]

Compound: CC[C@H](C)[C@H]1O[C@]2(CC[C@@H]1C)C[C@@H]1C[C@@H](C/C=C(\C)[C@@H](O[C@H]3C[C@H](OC)[C@@H](O[C@H]4C[C@H](OC)[C@@H](O)[C@H](C)O4)[C@H](C)O3)[C@@H](C)/C=C/C=C3\CO[C@@H]4[C@H](O)C(C)=C[C@@H](C(=O)O1)[C@]34O)O2 [IVM, ivermectin]
- Fold incr. Imax (rP2X4R P290A mutant; [5]): 3.7 ± 0.2 fold
- Fold incr. Imax (rP2X4R I209A mutant; [5]): 2.1 ± 0.3 fold
